Patent US20260125357A1, “LACTATE ENHANCING COMPOUNDS AND USES THEREOF” (GLIAPHARM SA, priority 2022, published 2026)

Legend:
C57Bl/6J wild-type mice = test: 18F-FDG PET glucose uptake in the brain; type: in vivo, mouse; details: gavage, 30 mg/kg, vs Vehicle
Protocol: All experiments were carried out in strict accordance with the Swiss Federal Guidelines for Animal Experimentation and were approved by the Cantonal Veterinary Office for Animal Experimentation (Canton of Geneva, Switzerland). Adult male C57Bl/6J wild-type mice weighting 18-28 g (8 to 12 weeks of age) were used (Charles River Laboratories). Animals were housed in groups of 3-5 in polypropylene cages (30×40×15 cm) with wire mesh top in a temperature (22±2° C.) and humidity (55±15%) controlled environment on a 12-hour light cycle (07.00-19.00 h lights on), except after surgeries when animal were housed individually. The samples (Vehicle or compounds of the invention) were administered per os (gavage) in a solution made of water supplemented with 0.4% hydroxypropyl methylcellulose (HPMC) Methocel 4 KM (w/v) and 0.25% Tween-20 (v/v), as previously described (Thackaberry et al., 2010, Toxicol Sci., 117(2):485-92). Concentrations of the compounds tested ranged from 3 to 30 mg/kg.
^18F-FDG PET Glucose uptake in the brain was measured in vivo using 18F-fluorodeoxyglucose (FDG) with positron emission tomography (PET) Scan. Mice were fasted for 12 hours before the scans PET/CT measurements. Compounds of the invention were administered by gavage, followed by an intraperitoneal injection of 5 MBq of ^18F-FDG in 300 μL of saline. […]

[1] = test system: Wild-type (WT) and GLUT1-DS transgenic mice; test: Grip strength test in WT and GLUT1-DS transgenic mice; type: in vivo, mouse; details: 10 mg/kg, after rotarod session
Excerpt: Heterozygous transgenic mice on 129/SvJ genetic background in which glucose transporter 1 (GLUT1) has been knocked down were used (GLUT1(+/−)) (Wang et al., 2016, Human Molecular Genetics, 15(7)). GLUT1-deficiency syndrome (GLUT1-DS) is a prototypic hypometabolic diseases caused by the mutation of GLUT1 and decreased levels of glucose and lactate in the brain (Tang et al., 2019, Annals of Clinical and Translational Neurology 6(9)). Mating colonies were composed of wild-type female mice and GLUT1-DS male mice, or GLUT1-DS female mice and wild-type male mice. F1 pups were genotyped after ear punching at weaning using PCR to determine genotype. Mice of 2 to 3 months of age were used.
Motor strength was measured on the grip strength test (Bioseb) after rotarod session. Wild-type (WT) and GLUT1-DS transgenic mice were placed with 4 paws on the grid and maximal grip strength was recorded over 2 sessions with 5 minutes apart. Maximal grip strength over the 2 sessions was recorded.

COc1cc2ccnc(Nc3ccc(S(C)(=O)=O)cc3)c2cc1OC [Compound 2, 6,7-dimethoxy-N-(4-methylsulfonylphenyl)isoquinolin-1-amine]
glucose uptake in the brain (18F-FDG in the whole brain) (C57Bl/6J wild-type mice): increases glucose uptake in the brain | muscle strength (grip strength) [1]: did not lead to any difference on muscle strength
